Source: ChEMBL document CHEMBL4619766, “Eudesmacarbonate, a Eudesmane-Type Sesquiterpene from a Marine Filamentous Cyanobacterial Mat (Oscillatoriales) in the Florida Keys” (J Nat Prod, 2020)

Key:
[1] = Toxicity in 4 to 5 hpf stage wild type zebrafish AB embryo assessed as effect on heart rate at 9.4 to 94 uM under 14 hrs light and 10 hrs dark condition and measured at 3 dpf stage by microscopic analysis; parameters: species or system Danio rerio; details: in vivo
[2] = Neurotoxicity in 7 dpf stage zebra fish PSA larvae assessed induction of larval immobilization at 38 uM measured over 90 mins; assay type: toxicity, Danio rerio; details: zebrafish, 1.5 h
[3] = Neurotoxicity in 4 to 5 hpf stage wild type zebrafish AB embryo assessed as effect on spontaneous coiling frequency at >= 38 uM under 14 hrs light and 10 hrs dark condition and measured at 24 hpf stage by microscopic analysis; assay type: toxicity, Danio rerio; details: in vivo
[4] = Neurotoxicity in 4 to 5 hpf stage wild type zebrafish AB embryo assessed as effect on spasms at 9.4 to 94 uM under 14 hrs light and 10 hrs dark condition and measured at 5 dpf stage by microscopic analysis; assay type: toxicity, Danio rerio; details: in vivo
[5] = Neurotoxicity in 4 to 5 hpf stage wild type zebrafish AB embryo assessed as induction of motor incoordination at 9.4 to 94 uM under 14 hrs light and 10 hrs dark condition and measured at 5 dpf stage by microscopic analysis; assay type: toxicity, Danio rerio; details: in vivo
Danio rerio [6] = species on record: Danio rerio; test: Induction of larval immobilization in 7 dpf stage zebra fish PSA assessed as immobilization recovery level at 190 uM incubated for 90 mins followed by medium replacement and measured within 10 mins relative to control; assay type: toxicity, organism-based; details: zebrafish, in vivo, 1.5 h
[7] = Neurotoxicity in 4 to 5 hpf stage wild type zebrafish AB embryo assessed as irregular development of swim bladder dysfunction at 9.4 to 94 uM under 14 hrs light and 10 hrs dark condition and measured at 5 dpf stage by microscopic analysis; assay type: toxicity, Danio rerio; details: in vivo
Danio rerio [8] = species on record: Danio rerio; test: Induction of larval immobilization in 7 dpf stage zebra fish PSA assessed as immobilization recovery level at 110 uM incubated for 90 mins followed by medium replacement and measured within 10 mins relative to control; assay type: toxicity, organism-based; details: zebrafish, in vivo, 1.5 h
[9] = Neurotoxicity in 7 dpf stage zebra fish PSA larvae assessed induction of larval immobilization at 110 to 190 uM measured within 45 mins; assay type: toxicity, Danio rerio; details: zebrafish, 0.75 h
[10] = Neurotoxicity in 4 to 5 hpf stage wild type zebrafish AB embryo assessed as induction of head butting at 9.4 to 94 uM under 14 hrs light and 10 hrs dark condition and measured at 5 dpf stage by microscopic analysis; assay type: toxicity, Danio rerio; details: in vivo
[11] = Neurotoxicity in 4 to 5 hpf stage wild type zebrafish AB embryo assessed as irregular inflated swim bladder at 9.4 to 94 uM under 14 hrs light and 10 hrs dark condition and measured at 5 dpf stage by microscopic analysis; assay type: toxicity, Danio rerio; details: in vivo
[12] = Toxicity in 4 to 5 hpf stage wild type zebrafish AB embryo assessed as induction of bradycardia at 4.5 to 22 nM under 14 hrs light and 10 hrs dark condition and measured at 3 dpf stage by microscopic analysis; parameters: species or system Danio rerio; details: in vivo, 0.022 µM
[13] = Neurotoxicity in 4 to 5 hpf stage wild type zebrafish AB embryo assessed as induction of head butting at 4.5 to 22 nM under 14 hrs light and 10 hrs dark condition and measured at 5 dpf stage by microscopic analysis; assay type: toxicity, Danio rerio; details: in vivo, 0.022 µM
[14] = Neurotoxicity in 4 to 5 hpf stage wild type zebrafish AB embryo assessed as irregular inflated swim bladder at 4.5 to 22 nM under 14 hrs light and 10 hrs dark condition and measured at 5 dpf stage by microscopic analysis; assay type: toxicity, Danio rerio; details: in vivo, 0.022 µM
[15] = Neurotoxicity in 4 to 5 hpf stage wild type zebrafish AB embryo assessed as effect on spasms at 4.5 to 22 nM under 14 hrs light and 10 hrs dark condition and measured at 5 dpf stage by microscopic analysis; assay type: toxicity, Danio rerio; details: in vivo, 0.022 µM
[16] = Neurotoxicity in 4 to 5 hpf stage wild type zebrafish AB embryo assessed as induction of motor incoordination at 4.5 to 22 nM under 14 hrs light and 10 hrs dark condition and measured at 5 dpf stage by microscopic analysis; assay type: toxicity, Danio rerio; details: in vivo, 0.022 µM
[17] = Neurotoxicity in 4 to 5 hpf stage wild type zebrafish AB embryo assessed as reduction in spontaneous coiling frequency at 4.5 to 22 nM under 14 hrs light and 10 hrs dark condition and measured at 24 hpf stage by microscopic analysis; assay type: toxicity, Danio rerio; details: in vivo, 0.022 µM

| SMILES | Activity [1] | Activity [2] | Activity [3] | Activity [4] | Activity [5] | Activity (Danio rerio [6]) [%] | Activity [7] | Activity (Danio rerio [8]) [%] | Activity [9] | Activity [10] | Activity [11] | Activity [12] | Activity [13] | Activity [14] | Activity [15] | Activity [16] | Activity [17] |
| --- | --- | --- | --- | --- | --- | --- | --- | --- | --- | --- | --- | --- | --- | --- | --- | --- | --- |
| CC(C)[C@@H]1CC[C@]2(C)CCC[C@]3(C)OC(=O)O[C@H]1[C@@H]23 | Toxic | Non-Toxic | Toxic | Toxic | Toxic | 47 | Toxic | 87 | Toxic | Toxic | Toxic | – | – | – | – | – | – |
| C=C(C=O)C[C@@H]1C[C@H](O)[C@]2(C)O[C@@H]3C[C@@H]4O[C@@H]5C[C@]6(C)O[C@]7(C)CC[C@@H]8O[C@@H]9C[C@]%10(C)O[C@@H]%11C(C)=CC(=O)O[C@H]%11C[C@H]%10O[C@H]9C[C@@H](C)[C@H]8O[C@H]7C[C@H]6O[C@@]5(C)C/C=C\[C@H]4O[C@H]3C[C@H]2O1 [BREVETOXIN B] | – | – | – | – | – | – | – | – | – | – | – | Toxic | Toxic | Toxic | Toxic | Toxic | Non-Toxic |
